Key:
Hs 919.T. = assay: Hits validation, dose-response cell proliferation (CellTiter-Glo); assay type: cell-based; details: control cell line, 12-point dose-response, mean ± SD
Experimental: These drugs were chosen based on their known mechanisms and safety profiles. We also tested the synergy between these drug hits (Supplementary Figures S6–S11). […] We evaluated the anti-proliferation effect in combination treatments using the EWS and control cell lines.
(§1) For hits validation and combination study, cells were harvested and aliquoted into 384-well plates at concentrations of 750–1,500 cells per well in a total of 20 μl/well using a Matrix Wellmate (Thermo Scientific). Five μl of culture media containing either vehicles or drug were added to each well the next day (drug concentrations range from 1 nmol/L to 50 μmol/L). For combination study, selected drugs were archived in robotically accessible plates, to which media was added in preparation for addition to master plates by a Nimbus 96 liquid-dispensing workstation (Hamilton). Liquid transfers to dilution and assay plates were handled using the same workstation. Each 384-well master plate contained four 9 by 9 dose-matrix blocks, with eight serial two-fold dilutions (concentrations range from 7.8 nmol/L to 1 μmol/L). Additional wells were reserved for untreated, and vehicle-treated control wells. Cell proliferation was evaluated using Cell-Titer Glo® reagents (Promega). IC50 values were determined for each drug using SigmaPlot (Systat Software). The combination index values were calculated using SigmaPlot (Systat Software) and CompuSyn.

Hs 863.T. = assay: as above; assay type: cell-based; details: control cell line, 12-point dose-response, mean ± SD
Experimental: as §1

A673 = assay: as above; assay type: cell-based; details: Homo sapiens, A673; 12-point dose-response 50 μmol/L to 1 nmol/L, mean ± SD
Experimental: as §1

COG-E-352 = assay: as above; assay type: cell-based; details: 12-point dose-response 50 μmol/L to 1 nmol/L, mean ± SD
Experimental: as §1

RD-ES = assay: as above; assay type: cell-based; details: RD-ES; 12-point dose-response 50 μmol/L to 1 nmol/L, mean ± SD
Experimental: as §1

Hs 822.T. = assay: as above; assay type: cell-based; details: control cell line, 12-point dose-response, mean ± SD
Experimental: as §1

TC-71 = assay: as above; assay type: cell-based; details: TC-71; 12-point dose-response 50 μmol/L to 1 nmol/L, mean ± SD
Experimental: as §1

CHLA-258 = assay: as above; assay type: cell-based; details: 12-point dose-response 50 μmol/L to 1 nmol/L, mean ± SD
Experimental: as §1

SK-ES-1 = assay: as above; assay type: cell-based; details: Homo sapiens, SK-ES1; 12-point dose-response 50 μmol/L to 1 nmol/L, mean ± SD
Experimental: as §1

[1] = 24-month study in rats; auranofin 1.0 or 2.5 mg/kg/day orally; gold sodium thiomalate 2 or 6 mg/kg twice weekly; cited from earlier work

## CC1=CC(=O)c2ccccc2C1=O [Menadione]
Hs 919.T.
  IC50: 15.8 ± 2.35 µM
Hs 863.T.
  IC50: 14.2 ± 3.2 µM
A673
  IC50: 6.8 ± 1.35 µM
COG-E-352
  IC50: 5.62 ± 1.31 µM
RD-ES
  IC50: 10.6 ± 3.2 µM
Hs 822.T.
  IC50: 12.2 ± 2.12 µM
TC-71
  IC50: 2.94 ± 3.48 µM
CHLA-258
  IC50: 3.64 ± 2.08 µM
SK-ES-1
  IC50: 5.56 ± 1.24 µM

## O=C(Nc1ccc([N+](=O)[O-])cc1Cl)c1cc(Cl)ccc1O [Niclosamide]
Hs 919.T.
  IC50: 10.6 ± 2.84 µM
Hs 863.T.
  IC50: 10.5 ± 2.66 µM
A673
  IC50: 7.02 ± 1.23 µM
COG-E-352
  IC50: 0.42 ± 0.07 µM
RD-ES
  IC50: 8.54 ± 1.55 µM
Hs 822.T.
  IC50: 15.2 ± 3.51 µM
TC-71
  IC50: 0.79 ± 0.47 µM
CHLA-258
  IC50: 0.7 ± 0.14 µM
SK-ES-1
  IC50: 12.5 ± 2.36 µM

## COc1cc(NC(C)CCCN)c2ncccc2c1 (stereo not shown) [Primaquine]
Hs 919.T.
  IC50: > 50 µM
Hs 863.T.
  IC50: > 25 µM
A673
  IC50: 32.5 ± 6.58 µM
COG-E-352
  IC50: 13.3 ± 4.09 µM
RD-ES
  IC50: > 25 µM
Hs 822.T.
  IC50: > 25 µM
TC-71
  IC50: 14.3 ± 3.71 µM
CHLA-258
  IC50: 7.14 ± 2.21 µM
SK-ES-1
  IC50: > 25 µM

## CC(=O)[C@H]1CC[C@H]2[C@@H]3CCC4=CC(=O)CC[C@]4(C)[C@H]3CC[C@]12C [Progesterone]
Hs 919.T.
  IC50: > 50 µM
Hs 863.T.
  IC50: > 50 µM
A673
  IC50: > 50 µM
COG-E-352
  IC50: 24.9 ± 5.85 µM
RD-ES
  IC50: > 50 µM
Hs 822.T.
  IC50: > 50 µM
TC-71
  IC50: > 50 µM
CHLA-258
  IC50: 11.5 ± 5.31 µM
SK-ES-1
  IC50: > 50 µM

## COc1ccc(C[C@H](N)C(=O)N[C@H]2[C@@H](O)[C@H](n3cnc4c(N(C)C)ncnc43)O[C@@H]2CO)cc1 [Puromycin]
Hs 919.T.
  IC50: 0.89 ± 0.03 µM
Hs 863.T.
  IC50: 1.02 ± 0.26 µM
A673
  IC50: 0.25 ± 0.01 µM
COG-E-352
  IC50: 0.05 ± 0.01 µM
RD-ES
  IC50: 0.35 ± 0.03 µM
Hs 822.T.
  IC50: 0.55 ± 0.13 µM
TC-71
  IC50: 0.08 ± 0.05 µM
CHLA-258
  IC50: 0.06 ± 0.02 µM
SK-ES-1
  IC50: 0.35 ± 0.1 µM

## C[n+]1cc2c3c(ccc2c2ccc4cc5c(cc4c21)OCO5)OCO3 [Sanguinarine]
Hs 919.T.
  IC50: 1.44 ± 0.32 µM
Hs 863.T.
  IC50: 1.25 ± 0.14 µM
A673
  IC50: 0.75 ± 0.14 µM
COG-E-352
  IC50: 1.05 ± 0.18 µM
RD-ES
  IC50: 1.5 ± 0.12 µM
Hs 822.T.
  IC50: 1.55 ± 0.26 µM
TC-71
  IC50: 0.2 ± 0.08 µM
CHLA-258
  IC50: 0.95 ± 0.31 µM
SK-ES-1
  IC50: 1.87 ± 0.51 µM

## CCC(C)(C)C(=O)O[C@H]1C[C@@H](C)C=C2C=C[C@H](C)[C@H](CC[C@@H]3C[C@@H](O)CC(=O)O3)[C@H]21 [Simvastatin]
Hs 919.T.
  IC50: 2.88 ± 0.58 µM
Hs 863.T.
  IC50: 4.1 ± 0.56 µM
A673
  IC50: 0.58 ± 0.05 µM
COG-E-352
  IC50: 10.5 ± 1.7 µM
RD-ES
  IC50: 3.25 ± 0.14 µM
Hs 822.T.
  IC50: 2.08 ± 0.84 µM
TC-71
  IC50: 4.33 ± 3.86 µM
CHLA-258
  IC50: 0.25 ± 0.13 µM
SK-ES-1
  IC50: 3.86 ± 0.89 µM

## CC1=C(/C=C/C(C)=C/C=C/C(C)=C/C(=O)O)C(C)(C)CCC1 [Tretinoin]
Hs 919.T.
  IC50: > 50 µM
Hs 863.T.
  IC50: > 50 µM
A673
  IC50: > 50 µM
COG-E-352
  IC50: 35.5 ± 6.28 µM
RD-ES
  IC50: > 50 µM
Hs 822.T.
  IC50: > 50 µM
TC-71
  IC50: > 50 µM
CHLA-258
  IC50: 4.95 ± 3.82 µM
SK-ES-1
  IC50: > 50 µM

## CN1CCN(CCCN2c3ccccc3Sc3ccc(C(F)(F)F)cc32)CC1 [Trifluoperazine]
Hs 919.T.
  IC50: 16.8 ± 4.2 µM
Hs 863.T.
  IC50: 9.84 ± 2.28 µM
A673
  IC50: 15.6 ± 3.55 µM
COG-E-352
  IC50: 12.1 ± 1.58 µM
RD-ES
  IC50: 18.2 ± 2.54 µM
Hs 822.T.
  IC50: 10.6 ± 2.45 µM
TC-71
  IC50: 16.4 ± 3.46 µM
CHLA-258
  IC50: 13.6 ± 4.8 µM
SK-ES-1
  IC50: 16.7 ± 3.14 µM

## CC[C@]1(O)C[C@@H]2CN(CCc3c([nH]c4ccccc34)[C@@](C(=O)OC)(c3cc4c(cc3OC)N(C)[C@H]3[C@@](O)(C(N)=O)[C@H](O)[C@]5(CC)C=CCN6CC[C@]43[C@@H]65)C2)C1 [Vindesine]
Hs 919.T.
  IC50: 4.58 ± 0.45 µM
Hs 863.T.
  IC50: 0.28 ± 0.01 µM
A673
  IC50: < 0.003 µM
COG-E-352
  IC50: < 0.003 µM
RD-ES
  IC50: < 0.003 µM
Hs 822.T.
  IC50: 0.25 ± 0.01 µM
TC-71
  IC50: < 0.003 µM
CHLA-258
  IC50: < 0.003 µM
SK-ES-1
  IC50: < 0.003 µM

## O=C([O-])CC([S-])C(=O)[O-].[Au+].[Na+].[Na+] (stereo not shown) [gold sodium thiomalate]
[1]
  frequency of renal tubular cell karyomegaly and cytomegaly and renal adenoma: significant incr ease

Reference: paper PMC5354814, “In silico and in vitro drug screening identifies new therapeutic approaches for Ewing sarcoma” (Oncotarget, 2016)
